Source: patent publication US20070128217A1 (priority 2003, published 2007)

Tests used:
[1] = system: antibodies in sera from SARS patients (sera 1a, 1b, 2, 6, 37, 62, London, SARS-yellow, SARS-green); assay type: binding, human; parameters: Binding of serum 6 to linear peptides of protein X1 of SARS-CoV Urbani / Binding of serum 37 to linear peptides of protein X1 of SARS-CoV Urbani / Binding of serum 6 to looped/cyclic peptide (PEPSCAN-ELISA) / Binding of serum 37 to looped/cyclic peptide (PEPSCAN-ELISA) / Binding of serum 37 to looped/cyclic peptides of protein X1 of SARS-CoV Urbani / Binding of serum 6 to linear peptides of protein X2 / Binding of serum 37 to linear peptides of protein X2 / Binding of serum 37 to looped/cyclic peptides of protein X2 of SARS-CoV Urbani / Binding of serum 6 to linear peptides of protein M of SARS-CoV Urbani / Binding of serum 37 to linear peptides of protein M of SARS-CoV Urbani / Binding of serum 6 to looped/cyclic peptides of protein M of SARS-CoV Urbani / Binding of serum 37 to looped/cyclic peptides of protein M of SARS-CoV Urbani / Binding of serum 6 to linear peptides of protein X3 of SARS-CoV Urbani / Binding of serum 37 to linear peptides of protein X3 of SARS-CoV Urbani / Binding of serum 37 to looped/cyclic peptides of protein X3 of SARS-CoV Urbani / Binding of serum 6 to linear peptides of protein X4 of SARS-CoV Urbani / Binding of serum 37 to linear peptides of protein X4 of SARS-CoV Urbani / Binding of serum 37 to looped/cyclic peptides of protein X4 of SARS-CoV Urbani / Binding of serum 6 to linear peptides of protein X5 of SARS-CoV Urbani / Binding of serum 37 to linear peptides of protein X5 of SARS-CoV Urbani / Binding of serum 37 to looped/cyclic peptides of protein X5 of SARS-CoV Urbani / Binding of serum 6 to linear peptides of protein N of SARS-CoV Urbani / Binding of serum 37 to linear peptides of protein N of SARS-CoV Urbani / Binding of serum 6 to linear peptide (PEPSCAN-ELISA) / Binding of serum 1a to looped/cyclic peptides of protein N of SARS-CoV Urbani / Binding of serum 1b to looped/cyclic peptides of protein N of SARS-CoV Urbani / Binding of serum 2 to looped/cyclic peptides of protein N of SARS-CoV Urbani / Binding of serum 6 to looped/cyclic peptides of protein N of SARS-CoV Urbani / Binding of serum 37 to looped/cyclic peptides of protein N of SARS-CoV Urbani / Binding of serum 62 to looped/cyclic peptides of protein N of SARS-CoV Urbani / Binding of serum London to looped/cyclic peptides of protein N of SARS-CoV Urbani / Binding of serum SARS-green to looped/cyclic peptides of protein N of SARS-CoV Urbani: unit not given here
[2] = system: control sera (pooled serum of ten healthy LUMC hospital workers; commercial negative donor pooled serum from the Dutch bloodbank); assay type: binding, human; parameters: Binding of Control serum LUMC to linear peptides / Binding of Control serum Blood-bank to linear peptides / Binding of Control serum LUMC to looped peptides / Binding of Control Serum Blood-Bank to Looped peptides / Binding of Control serum LUMC to linear peptides of the protein M of SARS-CoV Urbani / Binding of Control serum Blood-bank to linear peptides of the protein M of SARS-CoV Urbani / Binding of Control serum LUMC to looped peptides of the protein M of SARS-CoV Urbani / Binding of Control Serum Blood-Bank to Looped peptides of the protein M of SARS-CoV Urbani: unit not given here
[3] = system: rabbit serum obtained by immunizing a rabbit with the SARS-CoV strain Frankfurt 1; assay type: binding; parameters: Binding of a rabbit serum to linear peptides / Binding of a rabbit serum to looped peptides / Rabbit serum linear peptides / Rabbit serum looped peptides / Binding of a rabbit serum to linear peptides of protein N of SARS-CoV Urbani (Rabbit serum linear peptides) / Binding of a rabbit serum to looped/cyclic peptides of protein N of SARS-CoV Urbani (Rabbit serum looped peptides): unit not given here
[4] = system: recombinant human anti-SARS-CoV antibody 03-018; assay type: binding; parameters: Binding of antibody 03-018 to linear peptides of the N protein of SARS-CoV Urbani / Binding of antibody 03-018 to looped/cyclic peptides of the N protein of SARS-CoV Urbani: unit not given here

Sequence | Binding of serum 1a to linear peptides of protein N of SARS-CoV Urbani [1] | Binding of serum 1a to looped/cyclic peptides of protein N of SARS-CoV Urbani [1] | Binding of serum 1b to linear peptides of protein N of SARS-CoV Urbani [1] | Binding of serum 1b to looped/cyclic peptides of protein N of SARS-CoV Urbani [1] | Binding of serum 2 to linear peptides of protein N of SARS-CoV Urbani [1] | Binding of serum 2 to looped/cyclic peptides of protein N of SARS-CoV Urbani [1] | Binding of serum 6 to linear peptides of protein N of SARS-CoV Urbani [1] | Binding of serum 6 to looped/cyclic peptides of protein N of SARS-CoV Urbani [1] | Binding of serum 37 to linear peptides of protein N of SARS-CoV Urbani [1] | Binding of serum 37 to looped/cyclic peptides of protein N of SARS-CoV Urbani [1] | Binding of serum 62 to linear peptides of protein N of SARS-CoV Urbani [1] | Binding of serum 62 to looped/cyclic peptides of protein N of SARS-CoV Urbani [1] | Binding of serum London to linear peptides of protein N of SARS-CoV Urbani [1] | Binding of serum London to looped/cyclic peptides of protein N of SARS-CoV Urbani [1] | Binding of serum SARS-green to looped/cyclic peptides of protein N of SARS-CoV Urbani [1] | Binding of serum SARS-yellow to looped/cyclic peptides of protein N of SARS-CoV Urbani [1] | Binding of a rabbit serum to linear peptides of protein N of SARS-CoV Urbani (Rabbit serum linear peptides) [3] | Binding of a rabbit serum to looped/cyclic peptides of protein N of SARS-CoV Urbani (Rabbit serum looped peptides) [3] | Binding of antibody 03-018 to linear peptides of the N protein of SARS-CoV Urbani [4] | Binding of antibody 03-018 to looped/cyclic peptides of the N protein of SARS-CoV Urbani [4] | further results
EVTPSGTWLTYHGAI | 0.2 | 0.4 | 0.1 | 0.3 | 0.1 | 0.5 | 0.2 | 0.3 | 0.7 | 0.8 | 0.5 | 0.9 | 0.4 | 0.5 | 0.7 | 0.4 | 0.1 | 0.3 | 0.1 | 0.2 | Binding of serum SARS-green to linear peptides of protein N of SARS-CoV Urbani [1]: 0.1; Binding of serum SARS-yellow to linear peptides of protein N of SARS-CoV Urbani [1]: 0.5; Control Serum Blood-Bank Looped peptides [2]: 0.8; Control serum Blood-bank linear peptides [2]: 0.7; Control serum LUMC linear peptides [2]: 0.6; Control serum LUMC looped peptides [2]: 0.7
FAPSASAFFGMSRIG | 0.2 | 0.3 | 0.1 | 0.1 | 0.2 | 0.4 | 0.1 | 0.3 | 0.6 | 0.5 | 0.5 | 0.4 | 0.4 | 0.9 | 0.0 | 0.5 | 0.0 | 0.3 | 0.1 | 0.2 | Binding of serum SARS-green to linear peptides of protein N of SARS-CoV Urbani [1]: 0.4; Binding of serum SARS-yellow to linear peptides of protein N of SARS-CoV Urbani [1]: 0.5; Control Serum Blood-Bank Looped peptides [2]: 0.4; Control serum Blood-bank linear peptides [2]: 0.5; Control serum LUMC linear peptides [2]: 0.6; Control serum LUMC looped peptides [2]: 0.4
FFGMSRIGMEVTPSG | 0.3 | 0.3 | 0.1 | 0.2 | 0.2 | 0.4 | 0.2 | 0.1 | 0.7 | 0.5 | 0.7 | 0.4 | 0.6 | 0.3 | 0.1 | 0.4 | 0.2 | 0.4 | 0.1 | 0.2 | Binding of serum SARS-green to linear peptides of protein N of SARS-CoV Urbani [1]: 0.3; Binding of serum SARS-yellow to linear peptides of protein N of SARS-CoV Urbani [1]: 0.8; Control Serum Blood-Bank Looped peptides [2]: 0.5; Control serum Blood-bank linear peptides [2]: 0.8; Control serum LUMC linear peptides [2]: 0.7; Control serum LUMC looped peptides [2]: 0.5
FGDQDLIRQGTDYKH |  | 0.4 |  | 0.3 |  | 0.4 |  | 0.2 |  | 0.7 |  | 0.6 |  | 0.4 | 0.7 | 0.5 | 0.1 | 0.5 | 0.1 | 0.2 | Binding of serum 1a to linear peptide (PEPSCAN-ELISA) [1]: 0.3; Binding of serum 1b to linear peptide (PEPSCAN-ELISA) [1]: 0.2; Binding of serum 2 to linear peptide (PEPSCAN-ELISA) [1]: 0.2; Binding of serum 6 to linear peptide (PEPSCAN-ELISA) [1]: 0.2; Binding of serum 37 to linear peptide (PEPSCAN-ELISA) [1]: 0.7; Binding of serum 62 to linear peptide (PEPSCAN-ELISA) [1]: 0.7; Binding of serum London to linear peptide (PEPSCAN-ELISA) [1]: 0.6; Binding of serum SARS-green to linear peptide (PEPSCAN-ELISA) [1]: 0.7; Binding of serum SARS-yellow to linear peptide (PEPSCAN-ELISA) [1]: 0.6; Binding of Control Serum Blood-Bank to Looped peptides [2]: 0.6; Binding of Control serum Blood-bank to linear peptides [2]: 0.8; Binding of Control serum LUMC to linear peptides [2]: 0.7; Binding of Control serum LUMC to looped peptides [2]: 0.7
